# Experimental data reported in patent US10080748B2, “Use of flap inhibitors to reduce neuroinflammation mediated injury in the central nervous system” (Bioscience Pharma Partners, LLC, priority 2014, dated 2018).
# Key:
# [1] = system: rats subjected to FPI (TBI model); assay: T2-weighted MRI brain swelling (edema) 72 hours after TBI (rat FPI); format: in vivo
# Description: (§1) Craniotomy and lateral fluid percussion injury (FPI) were performed using a previously validated and published procedure. Farias S, et al. J. Neurotraum, 26, 1977-1986, 2009; Frey L. C. et al. J. Neurosci. Methods 177, 267-272, 2009. Throughout the specification animals subjected to this protocol are referred to as having a TBI since this treatment protocol is a TBI model. Briefly, rats were anesthetized with 3-5% isoflurane, isosol, VEDCO Inc., St. Joseph, Mo., via nose cone and mounted in a stereotaxic head frame. A 3 millimeter (mm) craniotomy was created and centered at 3 mm caudal to bregma and 3.5 mm left of the sagittal suture, keeping the exposed dura intact. One steel support screw was embedded in the skull on the contralateral side. […] Moistened food pellets were provided after injury, and all animals were monitored daily for well-being and weight changes. […]
# For each rat, five slices, 1.2 mm thick, spanning the entire area of injury were used to calculate FPI-related brain swelling. The diameter of the injured, ipsilateral hemisphere was measured from midline to the widest point of the cortex (Fiji/ImageJ, NIH). The difference between the ipsilateral (ipsi) and contralateral (contra) hemisphere diameters was then calculated and normalized to the diameter of the contralateral hemisphere using the formula: {(diameter Ipsi−diameter Contra)/diameter Contra}×100 […]
# [2] = cited from earlier work
# [3] = system: rats subjected to FPI (TBI model); assay: Volume of cell death 72 hours after TBI (rat FPI); format: in vivo; details: 6 mg/kg IV 30 minutes prior to TBI; measured 72 hours later
# Description: as §1, with “side. A Luer-Lock hub with an inside diameter of 3.5 mm was centered over the craniotomy and bonded to the skull with cyanoacrylate adhesive and capped. Dental acrylic, Snap, Parka, Inc., Edgewood, N.J., was poured around the huh and screw. After the acrylic hardened antibiotic ointment was applied around the cap and the animals were returned to their cages.” for “side.”
# Rats were administered a single-dose of the FLAP inhibitor MK-886, 6 mg/kg IV by tail vein, 30 minutes prior to TBI. […] Results are expressed as the average±SEM. […]
# [4] = system: rats subjected to FPI (TBI model); assay: Hippocampal long-term potentiation (LTP) in slices four days after TBI (rat FPI); format: in vivo
# Description: as §1, with “side. A Luer-Lock hub with an inside diameter of 3.5 mm was centered over the craniotomy and bonded to the skull with cyanoacrylate adhesive and capped. Dental acrylic, Snap, Parka, Inc., Edgewood, N.J., was poured around the huh and screw. After the acrylic hardened antibiotic ointment was applied around the cap and the animals were returned to their cages.” for “side.”
# Four days after FPI or at the times indicated in the figures for CHI model animals were sacrificed and the brains were rapidly removed and immersed in ice-cold, sucrose containing cutting buffer (87 mM NaCl, 2.5 mM KCl, 7 mM MgCl2, 0.5 mM CaCl2, 1.25 mM NaH2PO4, 25 mM D-glucose, 35 mM sucrose, and 25 mM NaHCO3) for 40-60 seconds to cool the interior of the brain. […] A bipolar tungsten stimulating electrode was placed in the Schaffer collateral (SC) pathway to evoke synaptic field excitatory postsynaptic potentials (fEPSPs) recorded in the stratum radiatum using a nearby glass micropipette filled with aCSF. […]
smiles,measurement,setting,value
"CC(C)c1ccc2c(c1)c(SC(C)(C)C)c(CC(C)(C)C(=O)O)n2Cc1ccc(Cl)cc1 [MK-886, 1-[(4-Chlorophenyl)methyl]-3-[(1,1-dimethylethyl)thio]-α,α-dimethyl-5-(1-methylethyl)-1H-Indole-2-propanoic acid]",normalized brain swelling,[1]; 30 minutes pre-TBI,4.12+/−0.08%
same,normalized brain swelling,[1]; 60 minutes post-TBI,8.98+/−1.0%
same,plasma protein binding,[2],high
same,cell death induced by TBI,[3],significant reductions in cell death
same,"LTP, % of control fEPSP slope at 58-60 min",[4]; 30 minutes post-injury,256.13+/−8.527%
same,"LTP, % of control fEPSP slope at 58-60 min",[4]; 30 minutes pre-injury,242.75+/−76.94%
same,"LTP, % of control fEPSP slope at 58-60 min",[4]; 60 minutes post-injury,145.46+/−18.30
